# Values quoted from earlier work in patent publication US6277963A, “Antibodies directed toward extracellular signal-related kinases” (Regeneron Pharmaceuticals, Inc., priority 1997, dated 2001).
# Molecular target: MAP2 kinase (partially purified enzyme) (Mus musculus, UniProt P63085)
# Sequence (P63085 whole entry): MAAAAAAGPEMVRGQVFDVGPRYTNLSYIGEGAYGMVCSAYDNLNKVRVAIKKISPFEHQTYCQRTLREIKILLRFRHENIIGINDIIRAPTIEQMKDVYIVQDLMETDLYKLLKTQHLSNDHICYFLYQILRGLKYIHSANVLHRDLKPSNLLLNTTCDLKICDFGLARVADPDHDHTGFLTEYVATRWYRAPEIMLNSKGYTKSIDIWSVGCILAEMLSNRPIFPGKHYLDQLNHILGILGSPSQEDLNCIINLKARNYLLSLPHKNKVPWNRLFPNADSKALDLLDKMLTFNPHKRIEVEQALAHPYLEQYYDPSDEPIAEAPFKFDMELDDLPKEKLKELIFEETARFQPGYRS
SMILES,Km (read-out: Km for ATP),utilization of GTP
Nc1ncnc2c1ncn2[C@@H]1O[C@H](COP(=O)(O)OP(=O)(O)OP(=O)(O)O)[C@@H](O)[C@H]1O [ATP],7 µM,–
Nc1nc2c(ncn2[C@@H]2O[C@H](COP(=O)(O)OP(=O)(O)OP(=O)(O)O)[C@@H](O)[C@H]2O)c(=O)[nH]1 [GTP],–,did not appear to utilize GTP
